These results are taken from patent publication US6911468B2, “Tyrosine phosphatase inhibitors” (Takeda Chemical Industries, Ltd., priority 2000, dated 2005).

The target in one data set is T1, PTP1B (Homo sapiens, UniProt P18031).
T1 construct: in order to express 1-321 amino acid region encoding enzyme active domain of PTP1B; made in house; host or cells: E. coli BL21 DE3 pLysS
T1 sequence (P18031 1-321): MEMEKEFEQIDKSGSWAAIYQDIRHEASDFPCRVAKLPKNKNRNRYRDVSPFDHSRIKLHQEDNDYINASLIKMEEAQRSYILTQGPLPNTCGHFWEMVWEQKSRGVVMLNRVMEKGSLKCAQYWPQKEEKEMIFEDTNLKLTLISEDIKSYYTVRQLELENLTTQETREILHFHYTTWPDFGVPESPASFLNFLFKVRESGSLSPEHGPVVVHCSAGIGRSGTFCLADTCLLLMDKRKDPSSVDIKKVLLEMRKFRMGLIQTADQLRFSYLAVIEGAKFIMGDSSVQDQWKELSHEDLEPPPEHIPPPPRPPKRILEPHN
The data set can be described thus: Measurement of PTP1B Inhibitory Activity (dephosphorylation of p-nitrophenylphosphate, absorbance at 405 nm). The format is biochemical. Particulars: PTP1B enzyme active domain (1-321 amino acid, 6 histidine residues at C-terminal), pNPP substrate, pH 6.5, 37° C. for 1 hour. How it is done: Based on the sequence of human PTP-1B registered in Genbank (M31724) database, primer 1 and primer 2 were synthesized, and PTP1B cDNA was amplified from human skeletal muscle cDNA library (Clonetech, Inc. HL5002a) according to PCR method using these primers. The cycle of reactions at 98° C. for 10 seconds, at 58° C. for 30 seconds and at 72° C. for 90 seconds was repeated 35 cycles. The PCR reaction product (1322 bp) was cloned to pT7 Blue-T vector (Novagen, Inc.) to identify the base sequence.
Human PTP 1B cDNA (1322 bp) (100 ng) was amplified with primer 3 and primer 4 in order to express 1-321 amino acid region encoding enzyme active domain of PTP1B. The PCR reaction product (976 bp) was cloned to pT7 Blue-T vector (Novagen, Inc.) to identify the base sequence.
The pT7 Blue-T vector-human PTP1B cDNA (976 bp) was cleaved with restriction enzymes NdeI and SalI (Takara Shuzo Co., Ltd.) and subjected to electrophoresis using 0.7% agarose gel, and a 969 bp fragment was excised and purified. The fragment was introduced into pET32a (+) vector (Novagen, Inc.) cleaved with restriction enzymes NdeI and XhoI (Takara Shuzo Co., Ltd.), to constitute a vector pET32a (+)-human PTP1B cDNA (969 bp), which expresses PTP1B (321 amino acid) with 6 histidine residues binded to a C-terminal thereof under a control of T7 lac promotor.
E.coli BL21 DE3 pLysS (Novagen, Inc.) was transformed with the pET32a (+)-human PTP 1B cDNA (969 bp) to give an ampicillin (50 μg/ml) resistant bacterium. This was shake cultured at 37° C. using 5L of 2xYT medium (ampicillin (50 μg/ml)). When OD600nm reached to 0.5, IPTG (Isopropyl b-D-Thiogalactoside) was added to the culture medium so as to be 1 mM in order to induce the expression of protein, and this medium was further cultured at 37° C. overnight. The bacterium was collected by centrifugation (8000 rpm, 10 minutes, 4° C.).
The bacterium was suspended in lysis buffer (50 ml) (20 mM Tris HCl (pH 8.0), 0.5 M NaCl, 1 mM PMSF, 5 mM benzamidine, Lysozyme 5 mg) and crushed by sonication. To the supernatant after centrifuging (12000 rpm, 10 minutes, 4° C.) was added imidazole so as to be 50 mM and the mixture was mixed with His Bind resin (Novagen, Inc.) binded with Ni ion (4° C., overnight). The mixture was washed with 200 ml of (20 mM Tris HCl (pH 8.0), 0.5 M NaCl, 1 mM PMSF, 5 mM benzamidine, 50 mM imidazole), eluted with (20 mM Tris HCl (pH 8.0), 0.5 M NaCl, 1 mM PMSF, 5 mM benzamidine, 400 mM imidazole) and concentrated by centrifugation using Ultrafree-15 Biomax-50 (MILLIPORE Corp.) (11 mg/ml, 4ml). The purified protein (PTP1B) was identified by Western blotting method using SDS-PAGE, coomassie Blue stain and anti-PTP1B antibody (UBI Inc.).
The PTP1B inhibitory activity of the test compound was evaluated by measuring the ability of the test compound to dephosphorylate p-nitrophenylphosphate (pNPP) (a change of the absorbance at 405 nm).
To a buffer for measurement of the activity (0.1 M sodium acetate (pH 6.5), 1 mM EDTA, 10 mM DTT) (10 ml) was added PTP1B enzyme solution (2 μl) and the mixture was added to each well of a 96-well microtiter plate (100 μl each). A solution of the test compound in DMSO (10 μl) and 2 mM pNPP/the buffer for measurement of the activity (90 μl) were then added to each well, and the absorbance at 405 nm was measured. After keeping at 37° C. for 1 hour, the absorbance was measured again to evaluate a change of the absorbance. Regarding the change of the absorbance in the absence of the test compound as 100%, the concentration of the compound necessary for 50% inhibition (IC50 value) was calculated.

Regarding `O=C(O)/C=C/c1ccc(-c2cccn2-c2ccc(/C=C/C(=O)O)cc2)cc1` [Example 12, (E)-3-[4-(1-{4-[(E)-3-Hydroxy-3-oxo-1-propenyl]phenyl}-1H-pyrrol-2-yl)phenyl]-2-propenoic acid], the melting point is above 300 °C. Besides, the half-inhibitory concentration (IC50) at PTP1B was 3100 nM. In turn, `O=C(O)[C@@H](Cc1ccccc1)Oc1ccc(-c2ccc(-c3ccccc3)n2-c2ccc(Br)cc2)cc1` [Example 22, (2R)-2-{4-[1-(4-Bromophenyl)-5-phenyl-1H-pyrrol-2-yl]phenoxy}-3-phenylpropanoic acid] showed a half-inhibitory concentration (IC50) against PTP1B of 710 nM.

The compound `CCCCCCCCCCNC(=O)c1cc(-c2ccc(O[C@H](Cc3ccccc3)C(=O)O)cc2)n(CCc2ccc(Br)cc2)c1C` [Example 118, (2R)-2-{4-[1-(4-Bromophenethyl)-4-(decylaminocarbonyl)-5-methyl-1H-pyrrol-2-yl]phenoxy}-3-phenylpropanoic acid] had a melting point of 132 to 133 °C.

Turning to `O=C(O)CCc1ccc(-c2cccn2-c2ccc(CCC(=O)O)cc2)cc1` [Example 14, 3-(4-{1-[4-(2-Carboxyethyl)phenyl]-1H-pyrrol-2-yl}phenyl)propanoic acid], at PTP1B, the half-maximal inhibitory concentration (IC50) stood at 5870 nM. Regarding `CCCCCCCCCCCCn1c(C)ccc1-c1ccc(O[C@H](Cc2ccccc2)C(=O)O)cc1` [Example 56, (2R)-2-[4-(1-Dodecyl-5-methyl-1H-pyrrol-2-yl)phenoxy]-3-phenylpropanoic acid], on PTP1B, the midpoint of inhibition, the IC50, lay at 130 nM. The same measure, in the same setting: the figure for `CCCCCCCCCCCCCn1c(C)ccc1-c1ccc(O[C@H](Cc2ccccc2)C(=O)O)cc1` [Example 66, (2R)-2-[4-(5-Methyl-1-tridecyl-1H-pyrrol-2-yl)phenoxy]-3-phenylpropanoic acid] is 170 nM; for `CCCCCCCCc1ccc(-n2c(C)ccc2-c2ccc(O[C@H](Cc3ccccc3)C(=O)O)cc2)cc1` [Example 94, Sodium (2R)-2-([4-[1-(4-octylphenyl)-5-methyl-1H-pyrrol-2-yl]phenyl]oxy)-3-phenylpropanoate] it is 90 nM; for `O=C(O)[C@@H](Cc1ccccc1)Oc1ccc(-c2cccn2-c2ccc(Br)cc2)cc1` [Example 2, (2R)-2-{4-[1-(4-Bromophenyl)-1H-pyrrol-2-yl]phenoxy}-3-phenylpropanoic acid] it is 890 nM.

The compound `O=C(O)[C@@H](Cc1ccccc1)Oc1ccc(-n2cccc2-c2ccc(Br)cc2)cc1` [Example 18, (2R)-2-{4-[2-(4-bromophenyl)-1H-pyrrol-1-yl]phenoxy}-3-phenylpropanoic acid] showed an IC50 at PTP1B of 1010 nM.

In the case of `Cc1ccc(-c2ccc(O[C@@H](Cc3ccccc3)C(=O)O)cc2)n1-c1ccc(Br)cc1` [Example 50, (2S)-2-{4-[1-(4-Bromophenyl)-5-methyl-1H-pyrrol-2-yl]phenoxy}-3-phenylpropanoic acid], the midpoint of inhibition on PTP1B, the IC50, lay at 940 nM. For the compound `O=C(O)[C@@H](Cc1ccccc1)Oc1ccc(-c2cccn2-c2ccc(O[C@H](Cc3ccccc3)C(=O)O)cc2)cc1` [Example 16, (2R)-2-{4-[1-(4-{[(1R)-1-Carboxy-2-phenylethyl]oxy}phenyl)-1H-pyrrol-2-yl]phenoxy}-3-phenylpropanoic acid], at PTP1B, the 50% inhibitory concentration (IC50) came to 410 nM. Against the preceding compound, the IC50 is about 2.3-fold lower.
